Consider six compounds from patent publication US12117442B2, “Methods of screening compounds” (Depixus SAS, priority 2022, dated 2024).

Read-outs that look alike come from different tables or passages of the source.

The subject of one experiment is pre-miR-21-bp mutant. The experiment in a line: Dicer binding to pre-miR-21-bp mutant. Particulars: 20 nM full-length Dicer without magnesium; mutation abolishes bulge. As for the experimental part:
(§1) Pre-miR-21 and pre-miR-21-bp mutants are used as substrates to measure the effect of Dicer on the folding kinetics. Dicer is a double-strand-specific ribonuclease that binds the pre-miRNAs and cleaves them to generate mature miRNAs. Adding 20 nM of full-length Dicer without magnesium causes the binding of the protein to the structure without further processing of the structure. […] Therefore, the platform described herein is useful for detecting interaction between an RNA scaffold and an RNA binding protein.

A further experiment concerns pre-miR-21. The experiment in a line: Dicer binding to pre-miR-21 (unfolding force). To be noted: 20 nM full-length Dicer without magnesium. How it is done: as §1
Experiment [1] has as its system HIV-1 TAR. The experiment in a line: Ramp experiments (unfolding/refolding force) on HIV-TAR RNA. The experiment is classed as binding. Particulars: for effect on unfolding force: adding increasing concentrations. The text has this: In a ramp experiment, the nucleic acid (e.g., RNA) molecules are subjected to multiple cycles of slowly increasing and/or decreasing force, and the value at which the molecule unfolds or refolds can be determined from a sudden change in the bead's position. Upon binding, a ligand can cause a change in the unfolding or refolding force if it stabilizes or destabilizes the RNA structure.
A 59-nucleotide HIV-TAR RNA flanked by RNA/DNA duplexes was attached to a paramagnetic bead on one side and the flowcell on the other end.
To investigate whether the platform can distinguish between different KD, three additional small molecules were used that are known to bind to the HIV-1 TAR structure with varying binding affinities (FIG. 2C-2E). […] Above 100 μM of Kanamycin, there is a widening of the force distribution (FIG. 2D).

The target in experiment [2] is HIV-1 TAR. Particulars: known binder of HIV-1 TAR; cited from earlier work.
The next experiment deals with WT preQ1 riboswitch. The experiment in a line: Ramp analysis, WT preQ1 riboswitch. The experiment is classed as binding, Bsu. Particulars: fit of high-force fraction. As for the experimental part:
The WT preQ1 riboswitch was used as a reference (FIG. 4B). […] The peak around the reference force decreased while there was an increase in the proportion of cycles that have a higher unfolding force. The higher force cycles can represent the binding of the ligand and formation of the pseudoknot. The fraction of cycles that have an unfolding force greater than 95% confidence interval of each bead was calculated in control conditions (FIG. 4B). […] This is similar to the KD calculated in Example 2 from the constant force experiment at 9.6 pN.

Experiment [3] has as its target preQ1 riboswitch. Particulars: comparison result obtained by smFRET; cited from earlier work.
Experiment [4] relates to preQ1 riboswitch U7C + C15U mutant. To be noted: U7C + C15U versus wt; basis for selecting the mutant; cited from earlier work.
The subject of experiment [5] is wild type (WT) Bsu preQ1 riboswitch. The experiment in a line: Step constant-force experiments on WT preQ1 riboswitch. The experiment is classed as binding. From the text:
In a Constant-Force Experiment, the nucleic acid molecules are subjected to the same force for a certain amount of time before it is increased in a stepwise manner. The equilibrium force is the point at which the molecule spends equal time in both folded and unfolded states. Ligand binding at this force can cause a change in the dynamics of folding and unfolding.
(§2) To study the molecular dynamics of the preQ1 riboswitch using the platform described herein, wild type (WT) Bsu riboswitch was attached to the flowcell as described in Example 1. A step constant-force experiments were then performed, where the molecule is kept at a constant force for a given amount of time before increasing the force in a stepwise manner from lower to higher forces (FIG. 3B). The z position of the bead was recorded and at forces closer to equilibrium, the molecule transitioned between the folded and unfolded state (FIG. 3B). The force was maintained constant for five minutes at the equilibrium force (where the molecule spends as much time in the unfolded versus folded state) and various concentrations of the preQ1 ligand were tested. The binding of the ligand to the structure (arrows shown in representative binding analysis curve of FIG. 3C) was monitored in real time and at the level of the single molecule. A binding which causes the structure to remain in the folded state for more than 3 seconds was recorded. The kon calculated by dividing the number of events observed when the ligand is bound to the RNA structure over the time of experiment at a given concentration of the ligand. The RNA is considered bound to a ligand (here preQ1 ligand) when it stays folded for longer than 3.3 seconds. By testing different concentrations, the kon of the molecule was measured (FIG. 3D). The koff is inverse of the length of time when the RNA structure is bound by a ligand. Accordingly, a duration, when the ligand left the RNA structure (star) as the RNA structure went back to rapid transition between folded and unfolded state, was observed. The duration of this folded state allows to measure the koff of the ligand (FIG. 3E). The kon is dependent on the ligand concentration whereas the koff is not. For each force, the raw data was fitted to two different states using Hidden Markov model (FIG. 3B), and the fraction of time for which each molecule is present at the folded state was calculated over the time at each force step. The fraction was plotted against the force for each step, and the equilibrium force (inflection point) was determined for each molecule when the molecule spent 50% of the time at each state (FIG. 3F). The half-width of the force can also be determined by calculating 1/e (e=Euler's number) on either side of the inflection point, which indicates the force range where the molecule is bistable and transitions from folded and unfolded state (FIG. 3F). The transition frequency was calculated for each of the force steps recorded and plotted again the normalized force, corresponding to the equilibrium force for each bead in control conditions (FIG. 3G).
For the subsequent experiments, 1 mM Mg^2+ was added in all buffers.
To study the effect of preQ1 ligand binding to the riboswitch, constant-force step experiments were performed with increasing concentration of preQ1 ligand (FIG. 3B).

For experiment [6], the system named is preQ1 riboswitch U6C mutant. To be noted: U6C versus WT; basis for selecting the mutant; cited from earlier work.
Experiment [7] deals with preQ1 riboswitch A10G mutant. The experiment in a line: Ramp analysis, A10G mutant preQ1 riboswitch. The experiment is classed as binding, Bsu. The text has this:
(§3) The preQ1 riboswitch has several point substitutions that modify affinity to the preQ1 ligand (FIG. 4A).
With this mutant, the whole distribution was shifted towards higher forces, instead of having two different fractions (FIG. 4E). […] The constant-force step experiment also reflected the changes in the equilibrium force in micromolar range (FIG. 4F).

Experiment [8] has as its target preQ1 riboswitch U7C + C15U mutant. The experiment in a line: Ramp analysis, U7C + C15U double mutant preQ1 riboswitch. To be noted: fit of high-force fraction. The experiment is classed as binding, Bsu.
From the text: as §3
(§4) Having established a reference point, the four different mutants were used to study the effect on preQ1 binding (FIG. 4C-4G). […] The difference could be due to the Mg^2+ used. Nonetheless, the platform was able to distinguish a 3-fold differences in KD, which is less apparent in platforms like SPR or fluorescent titration.

The test system of experiment [9] is preQ1 riboswitch. The experiment in a line: Long constant-force experiments at 9.6 pN on preQ1 riboswitch. The experiment is classed as binding, Bsu. How it is done: as §2, with “The koff is inverse of the length of time when the RNA structure is bound by a ligand. Accordingly, a duration, when the ligand left the RNA structure (star) as the RNA structure went back to rapid transition between folded and unfolded state, was observed. The duration of this folded state allows to measure the koff of the ligand (FIG. 3E). The kon is dependent on the ligand concentration whereas the koff is not.” left out, “The transition frequency was calculated for each of the force steps recorded and plotted again the normalized force, corresponding to the equilibrium force for each bead in control conditions (FIG. 3G).” left out

The test system of experiment [10] is preQ1 riboswitch A10G mutant. To be noted: A10G versus wt; basis for selecting the mutant; cited from earlier work.
Experiment [11] deals with preQ1 riboswitch C15U mutant. The experiment in a line: Ramp analysis, C15U mutant preQ1 riboswitch. The experiment is classed as binding, Bsu. To be noted: fit of high-force fraction.
From the text: as §3, §4

In experiment [12] the test system is preQ1 riboswitch C15U mutant. To be noted: C15U versus wt; basis for selecting the mutant; cited from earlier work.
Experiment [13] relates to preQ1 riboswitch U6C mutant. The experiment in a line: Ramp analysis, U6C mutant preQ1 riboswitch. The experiment is classed as binding, Bsu. To be noted: no KD from fitting maximum density or high-force density.
From the text: as §3

The mark [14] stands for this setting: fit of changes in unfolding force, ramp experiments, read-out: calculated KD.
Setting [15] is: 1 μM preQ1 ligand, lesser extent than 1 mM Mg^2+.
Setting [16] is: increasing concentrations of preQ1, 1 mM Mg^2+ in buffers.

Take “Dicer: double-strand-specific ribonuclease that binds the pre-miRNAs and cleaves them to generate mature miRNAs”: the binding to mutant entry in the experiment on pre-miR-21-bp mutant is on record as “does not occur”. The “effect of binding on unfolding force” value in the experiment with pre-miR-21 is recorded as “increase in the unfolding force”.

Take `N=C(N)NCCC[C@H](N)C(N)=O` [argininamide]: the “effect on unfolding and refolding force” value in the experiment on HIV-1 TAR [1] (10 mM) is “increased both the unfolding and refolding force”. In addition, in the experiment on HIV-1 TAR [1], the “effect on unfolding force” value is on record as “increased the unfolding force”. Besides, on HIV-1 TAR [1] (fit of normalized force at maximum unfolding distribution for each bead, read-out: KD), the equilibrium dissociation constant (Kd) was found to be 5430 µM.

Consider `Cc1ccc2c(N)c(C(=O)Nc3cccc(C(F)(F)F)c3)sc2n1` [Compound 4, 3-Amino-6-methyl-N-(3-(trifluoromethyl)phenyl)thieno[2,3-b]pyridine-2-carboxamide], for which the results for the dissociation constant Kd on HIV-1 TAR [2] and on HIV-1 TAR [1] (setting [14]) were 2.4 µM and 2.99 µM, respectively. In addition, the “effect on unfolding force” value with HIV-1 TAR [1] is “decrease in the unfolding force”.

For `CCN[C@@H]1C[C@H](N)[C@@H](O[C@H]2OC(CN)=CC[C@H]2N)[C@H](O)[C@H]1O[C@H]1OC[C@](C)(O)[C@H](NC)[C@H]1O` [Netilmicin], on HIV-1 TAR [2], the Kd was 1.4 µM and the inhibition constant Ki was roughly 14 µM. Besides, the “effect on unfolding force” value in the experiment with HIV-1 TAR [1] is on record as “increase in the unfolding force”. Besides, at HIV-1 TAR [1] (setting [14]), the Kd is roughly 13.4 µM.

As to `NCc1c[nH]c2nc(N)[nH]c(=O)c12` [preQ1], the Kd on WT preQ1 riboswitch is 0.0878 µM; on preQ1 riboswitch [3], 0.134 µM; in [5] (fit of equilibrium force at each concentration), 0.162 µM; in [7] (A10G, fit of maximum unfolding force density for each bead) it was 34.7 µM; in experiment [8], 0.0177 µM; on preQ1 riboswitch [9] (calculated by Koff/Kon) it was 0.073 µM. In [11], this compound returned a Kd of 0.00535 µM. Moreover, the “Effect of mutation on binding affinity” value in experiment [4] is “Greatly Increase versus wt”; in [6] it was “Abolished versus WT”; in experiment [10], “Decrease versus wt”; in [12] it was “Increase versus wt”. Further, in experiment [5] (1 μM preQ1 ligand plus 1 mM Mg^2+), the “effect of ligand and cation together” value is reported as “additive effect”. For the same compound, the “effect on transition frequency” value is reported as “decreased transition frequency” in [5] (setting [15]) and “decreased the transition frequency” in [5] (setting [16]). In addition, the “effect on unfolding equilibrium force” value in [5] (setting [15]) is on record as “increased the unfolding equilibrium force”. In experiment [5] (setting [16]), the “effect on equilibrium force” value is reported as “increased equilibrium force”. Besides, in experiment [7] (A10G versus WT), the “increase in KD compared with WT” value is roughly 400 fold. In addition, the Kon with preQ1 riboswitch [9] (9.6 pN, fit of attachment rate) is listed as 0.0015 ^−1 nM^−1. The compound also returned a Koff with preQ1 riboswitch [9] (9.6 pN, one per mean time of ligand-bound event) of 0.11 s⁻¹. For the same compound, in [13], the ligand binding result is reported as “abolished the ligand binding”.

`[Mg+2]` [Mg^2+]: in experiment [5] (1 mM Mg^2+ alone, no ligand), the “effect on transition frequency at equilibrium force” value is “transition frequency decreased” and the “effect on unfolding equilibrium force” value was “increased the unfolding equilibrium force”.
